According to patent EP2292225A1 (priority 1997, dated 1998):
“Also recorded” adds a separate entry of the source. Like-named read-outs stand apart in the source and are kept apart here.

Key:
[1] = 7 day intravenous toxicity study; type: in vivo, rats; conditions: 10 µg/ml four times a day for 7 days (800 µg/kg daily)
Protocol: To determine the metabolism of ^3H-cytochalasin B in human blood, ^3H-cytochalasin B (8 µg/ml) was dissolved in saline; 1:1 dilution of saline and human plasma; or 1:1 dilution of saline and human whole blood. […] Toxicity Studies. To determine the toxicity of cytochalasin B, rats (4 male and 4 female) were injected with 10 µg/ml cytochalasin B four times a day for 7 days (Table 11). Data regarding body weight changes, food consumption, food efficiency, hematology parameters, coagulation parameters, serum chemistry parameters, and gross necropsy findings were collected. […] There were no gross or microscopic changes detected in the heart to account for the elevation. Thus, daily administration of cytochalasin B to rats at a dose of 800 µg/kg (for a total injected dose of 5600 µg/kg) may have an effect on heart weight of female (but not male) rats. However, clotted blood was not routinely removed from the heart lumens prior to weighing the heart.

[2] = Seven day intravenous toxicity study; type: in vivo, beagle dogs; conditions: seven consecutive days, 10080 min
Pig femoral arteries = test: Biological stenting of balloon traumatized femoral arteries (luminal area morphometry); type: in vivo
Protocol: Pig femoral arteries were traumatized as described in Example 7, and then treated with cytochalasin B. About 1.5 to about 2 ml of cytochalasin B at 0.1 µg/ml was infused into portions of the artery that had been separated from other portions by ligatures. The artery was then pressurized for 3 minutes and the fluid aspirated. Approximately 8 to about 30 lambda of the solution is retained in the interstitial space surrounding the cells in the tunica media. Ten femoral arteries (two arteries obtained from each of the 5 pigs that were treated according to the single dose protocol described in Example 7) were then evaluated histologically at 4 days or 3 weeks after cytochalasin B adminstration. The maximal luminal area of each artery was measured and calculated from digitized microscopic images by a BQ System IV computerized morphometric analysis system (R & M Biometrics, Inc., Nashville, TN). This experiment was repeated with 5 additional pigs (two arteries per pig; cytochalasin B dose = 0.1 µg/ml, applied for 3 minutes at 1 atm pressure; same time points). The data obtained from the two experiments were combined.
The luminal area of the traumatized and cytochalasin B-treated segments of the arteries were also compared to the luminal area of the normal, untreated region of the femoral artery proximal to the test area.
A cytochalasin B dose response study was then conducted on 10 pigs, following the experimental protocol described in Example 7. Briefly, both femoral arteries in each of 2 pigs were treated with one of the following doses of cytochalasin B: 0.0 µg/ml (i.e., PBS negative control); 0.01 µg/ml; 0.10 µg/ml; 1.0 µg/ml; and 10.0 µg/ml as described above. The agent was delivered by intraluminal catheter at 1 atm pressure for 3 minutes, and the arteries were evaluated 3 weeks later by the morphometric analysis system described above. The ratio of treated artery luminal area to proximal normal artery luminal area was determined as a percent change in treated vs. normal area, or the artery lumen size (diameter or cross sectional area) of treated arteries relative to traumatized but untreated arteries.
Balloon traumatized swine femoral arteries from control and treated (0.1 µg/ml cytochalasin B) were evaluated at 1, 4, 7, 14, or 21 days after intervention. […] A two way analysis of variance indicated a statistically significant difference (p<.05) in the artery lumen areas over three weeks between the cytochalasin B treated and diluent control groups.

left carotid artery = test: Inter-arterial infusion of crystals after balloon trauma (scintillation, autoradiography, morphometry); type: in vivo, Sprague-Dawley rats; conditions: for present over the treated length of artery: 1 mg crystalline in 300 ml vehicle
Protocol: Another study employed twenty, male, Sprague-Dawley rats. The rats underwent balloon trauma to their left carotid artery, followed by inter-arterial infusion of a solution containing 1 mg crystalline cytochalasin B in […] vehicle (Hanks sterile salt solution with 0.5% Cremophor) or a diluent (saline) control. Animals were sacrificed immediately after infusion, and 2, 4, 7 and 14 days post-trauma and infusion. Post-sacrifice, the left and the right (control) carotid arteries were removed. Samples of arteries were obtained for quantitation of ^3H-cytochalasin B by oxidation and scintillation counting, histopathology, autoradiography and vascular morphometry. Histopathology documented uniform, circumferential balloon trauma in the arterial wall of the left carotid arteries.

[3] = tested on: balloon traumatized rabbit carotid artery; type: in vivo
[4] = Group 7a: 10% wt/wt, three weeks

For `C=C1[C@@H](C)[C@H]2[C@H](Cc3ccccc3)NC(=O)[C@]23OC(=O)/C=C/[C@H](O)CCC[C@@H](C)C/C=C/[C@H]3[C@@H]1O` [cytochalasin B], which “only parameter which suggested an adverse effect” value [1] is on record?
The value was “elevation of the mean relative heart weight in treated female animals”.

And the “dose without any indication of adverse effects or toxicity” value [2]?
The value was “up to 648 µg/kg/day”.

What about the “percent change in treated vs. normal luminal area” value (Pig femoral arteries; 0.1 µg/ml, 1 atm for 3 minutes, 3 weeks later) of the same compound?
The value was ~140%.

What about the “artery lumen area over three weeks” value (Pig femoral arteries; 0.1 µg/ml, 1, 4, 7, 14, or 21 days after intervention) of the same compound?
The value was “sustained dilation which changed very little between days 7 and 21”.

What about the “luminal area compared to other test agents or controls” value (Pig femoral arteries; 0.1 µg/ml, 4 day and 3 week post-treatment) of the same compound?
Its value is “larger luminal area”.

What about the toxicity (Pig femoral arteries; at 10 µg/ml) of the same compound?
The toxicity was “no evidence of toxicity”.

And the “threshold level of the therapeutic effect” value (Pig femoral arteries; no effect below this dose)?
Its value is 0.1 µg/mL.

And the “lumen area in the test region compared to the normal control segment of the same artery” value (Pig femoral arteries; pig, in vivo)?
Its value is “approximately two times as large”.

What about the “neointima formation compared to diluent treated rats” value (left carotid artery; crystalline, inter-arterial infusion) of the same compound?
The value was “no statistically significant reduction in neointima formation”.

And the “present over the treated length of artery” value (left carotid artery; day 0)?
The value was “approximately 8 ug”.

And the “present over the treated length of artery” value (left carotid artery; day 2)?
The value was “less than 2 ng”.

What about the intimal proliferation ([3]; Group 1: 20 mg in 1 g bovine collagen gel, bovine collagen mesh wrap, 1 week) of the same compound?
Its intimal proliferation is “no intimal or adventital proliferation”.

And the intimal proliferation ([3]; Group 1: 20 mg in 1 g bovine collagen gel, bovine collagen mesh wrap, 2 weeks)?
The intimal proliferation was “minimal intimal and adventital proliferation”.

And the intimal proliferation ([3]; Group 1: 20 mg in 1 g bovine collagen gel, bovine collagen mesh wrap, three weeks)?
Its intimal proliferation is “no intimal proliferation”.

And the intimal proliferation ([3]; Group 2: 30% wt/wt in silicone wrap, 3 weeks)?
The intimal proliferation was “moderate, irregular intimal proliferation”.

What about the intimal proliferation ([3]; Group 2: 30% wt/wt in silicone wrap, one week) of the same compound?
The intimal proliferation was “no significant intimal or adventitial proliferation”.

What about the intimal proliferation ([3]; Group 2: 30% wt/wt in silicone wrap, two weeks) of the same compound?
The intimal proliferation was “complete inhibition of intimal proliferation”.

What about the intimal proliferation ([3]; Group 3: 8 mg in 100 mg pluronic gel, bovine collagen mesh wrap, one week) of the same compound?
Its intimal proliferation is “mild intimal proliferation”.

And the intimal proliferation ([3]; Group 3: 8 mg in 100 mg pluronic gel, bovine collagen mesh wrap, three weeks)?
Its intimal proliferation is “moderate amount of intimal hyperplasia”.

What about the intimal proliferation ([3]; Group 3: 8 mg in 100 mg pluronic gel, bovine collagen mesh wrap, two weeks) of the same compound?
The intimal proliferation was “mild, irregular intimal proliferation”.

And the re-endothelization ([3]; Group 3: 8 mg in 100 mg pluronic gel, one week)?
The re-endothelization was “approximately 30%”.

And the intimal proliferation ([3]; Group 4: 100 mg (10% wt/wt) in 1 g silicone wrap, one week)?
The intimal proliferation was “no intimal proliferation”.

What about the intimal proliferation ([3]; Group 4: 100 mg (10% wt/wt) in 1 g silicone wrap, three weeks) of the same compound?
The intimal proliferation was “minimal to no intimal proliferation”.

What about the intimal proliferation ([3]; Group 4: 100 mg (10% wt/wt) in 1 g silicone wrap, two weeks) of the same compound?
Its intimal proliferation is “minimal intimal proliferation”.

What about the re-endothelization ([3]; Group 4: 10% wt/wt silicone wrap, three weeks) of the same compound?
The re-endothelization was < 10%.

What about the intimal proliferation ([3]; Group 7a: 10% wt/wt, one and two weeks) of the same compound?
Its intimal proliferation is “no intimal proliferation for 2 weeks”.

And the intimal proliferation [3, 4]?
The intimal proliferation was “mild irregular intimal proliferation”.

What about the re-endothelized [3, 4] of the same compound?
The re-endothelized was 70%.

What about the intimal proliferation ([3]; Group 8a: 10% wrap for 2 weeks, removed, evaluated 2 weeks later, animals 1254, 1255, 1256) of the same compound?
The intimal proliferation was “none to mild; also recorded: mild to moderate intimal proliferation”.

What about the intimal proliferation ([3]; Group 10: 10 mg in 1 g silicone wrap (1% wt/wt) for 2 weeks, removed, 2 weeks later, animal 1304) of the same compound?
Its intimal proliferation is “moderate initmal proliferation”.

And the re-endothelization ([3]; Group 10: 1% wrap for 2 weeks, removed, 2 weeks later, animal 1304)?
The re-endothelization was 100%.

And the re-endothelized ([3]; Group 11: 1% wrap for 2 weeks, removed, four weeks later, animal 1308)?
The re-endothelized was 100%.

What about the intimal proliferation ([3]; Group 11: 1% wrap for 2 weeks, removed, four weeks later, animals 1307, 1308, 1309) of the same compound?
Its intimal proliferation is “moderate initmal proliferation; also recorded: moderate intimal proliferation; also recorded: marked intimal proliferation”.

What about the “qualitative difference between test and control animals” value ([3]; Groups 10 and 11: 1% wt/wt silicone wrap for 2 weeks, removed, 2 or 4 weeks later) of the same compound?
The value was “No significant difference”.
